Measured values as given in ChEMBL document CHEMBL1201861, “Genomics of Drug Sensitity in Cancer screening data, Wellcome Trust Sanger Institute”.

Columns and labels:
[1] = test system: HSC-4; assay: cells; type: functional, cell-based, Homo sapiens; conditions: Homo sapiens, HSC-4;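 further: growth inhibition of human HSC-4 cells, read out with a cell viability assay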
Description: SANGER: Inhibition of human HSC-4 cell growth in a cell viability assay.

[2] = test system: NCI-H1882; assay: cells; type: functional, cell-based, Homo sapiens; conditions: Homo sapiens, NCI-H1882;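 further: growth inhibition of the cell line, determined with a viability assay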
Description: SANGER: Inhibition of human NCI-H1882 cell growth in a cell viability assay.

[3] = test system: COLO-678; assay: cells; type: functional, cell-based, Homo sapiens; conditions: Homo sapiens, COLO-678
Description: SANGER: Inhibition of human COLO-678 cell growth in a cell viability assay.

[4] = test system: NCI-H2342; assay: cells; type: functional, cell-based, Homo sapiens; conditions: Homo sapiens, NCI-H2342;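 further: growth inhibition of the cancer cell line, determined with a cell viability assay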
Description: SANGER: Inhibition of human NCI-H2342 cell growth in a cell viability assay.

[5] = test system: COLO-741; assay: cells; type: functional, cell-based, Homo sapiens; conditions: Homo sapiens, COLO-741
Description: SANGER: Inhibition of human COLO-741 cell growth in a cell viability assay.

[6] = test system: A673; assay: cells; type: functional, cell-based, Homo sapiens; conditions: Homo sapiens, A673;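 further: growth inhibition of human A673 cells, read out through a cell viability assay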
Description: SANGER: Inhibition of human A673 cell growth in a cell viability assay.

[7] = test system: SIG-M5; assay: cells; type: functional, cell-based, Homo sapiens; conditions: Homo sapiens, SIG-M5;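 further: cell viability assay read-out, measuring how strongly growth of cultured human SIG-M5 cells is inhibited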
Description: SANGER: Inhibition of human SIG-M5 cell growth in a cell viability assay.

[8] = test system: T98G; assay: cells; type: functional, cell-based, Homo sapiens; conditions: Homo sapiens, T98G;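 further: growth inhibition of T98G cells, read out by a cell viability assay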
Description: SANGER: Inhibition of human T98G cell growth in a cell viability assay.

[9] = test system: KYSE-450; assay: cells; type: functional, cell-based, Homo sapiens; conditions: Homo sapiens, KYSE-450;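 further: cell growth inhibition measured by a viability assay in human KYSE-450 cells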
Description: SANGER: Inhibition of human KYSE-450 cell growth in a cell viability assay.

[10] = test system: HuO-3N1; assay: cells; type: functional, cell-based, Homo sapiens; conditions: Homo sapiens, HuO-3N1;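 further: cell viability readout used to measure how strongly compounds suppress proliferation of human HuO-3N1 cells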
Description: SANGER: Inhibition of human HuO-3N1 cell growth in a cell viability assay.

[11] = test system: SW837; assay: cells; type: functional, cell-based, Homo sapiens; conditions: Homo sapiens, SW837;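 further: growth inhibition of SW837 cells, determined with a cell viability assay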
Description: SANGER: Inhibition of human SW837 cell growth in a cell viability assay.

[12] = test system: LC-1F; assay: cells; type: functional, cell-based, Homo sapiens; conditions: Homo sapiens, LC-1F;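 further: growth inhibition of human LC-1F cells, read out with a cell viability assay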
Description: SANGER: Inhibition of human LC-1F cell growth in a cell viability assay.

[13] = test system: NCI-H716; assay: cells; type: functional, cell-based, Homo sapiens; conditions: Homo sapiens, NCI-H716;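 further: growth inhibition of human NCI-H716 cells, measured by a cell viability assay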
Description: SANGER: Inhibition of human NCI-H716 cell growth in a cell viability assay.

[14] = test system: A204; assay: cells; type: functional, cell-based, Homo sapiens; conditions: Homo sapiens, A204;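 further: growth inhibition of human A204 cells, read out with a cell viability assay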
Description: SANGER: Inhibition of human A204 cell growth in a cell viability assay.

[15] = test system: WSU-NHL; assay: cells; type: functional, cell-based, Homo sapiens; conditions: Homo sapiens, WSU-NHL;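 further: growth inhibition of human WSU-NHL cells, read out with a cell viability assay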
Description: SANGER: Inhibition of human WSU-NHL cell growth in a cell viability assay.

[16] = test system: SCC-25; assay: cells; type: functional, cell-based, Homo sapiens; conditions: Homo sapiens, SCC-25;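 further: growth inhibition of SCC-25 cells, measured with a cell viability assay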
Description: SANGER: Inhibition of human SCC-25 cell growth in a cell viability assay.

[17] = test system: MDA-MB-361; assay: cells; type: functional, cell-based, Homo sapiens; conditions: Homo sapiens, MDA-MB-361
[18] = test system: OVCAR-5; assay: cells; type: functional, cell-based, Homo sapiens; conditions: Homo sapiens, OVCAR-5;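 further: growth inhibition of human OVCAR-5 cells, read out with a cell viability assay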
Description: SANGER: Inhibition of human OVCAR-5 cell growth in a cell viability assay.

[19] = test system: MDA-MB-453; assay: cells; type: functional, cell-based, Homo sapiens; conditions: Homo sapiens, MDA-MB-453
Description: SANGER: Inhibition of human MDA-MB-453 cell growth in a cell viability assay.

[20] = test system: NCI-H345; assay: cells; type: functional, cell-based, Homo sapiens; conditions: Homo sapiens, NCI-H345;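 further: growth inhibition of NCI-H345 cells measured with a cell viability assay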
Description: SANGER: Inhibition of human NCI-H345 cell growth in a cell viability assay.

[21] = test system: MFE-280; assay: cells; type: functional, cell-based, Homo sapiens; conditions: Homo sapiens, MFE-280;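 further: growth inhibition of MFE-280 cells, determined with a cell viability readout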
Description: SANGER: Inhibition of human MFE-280 cell growth in a cell viability assay.

[22] = test system: NCI-H661; assay: cells; type: functional, cell-based, Homo sapiens; conditions: Homo sapiens, NCI-H661;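 further: cell viability assay read-out, IC50 being the concentration that inhibits growth of the cells by half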
Description: SANGER: Inhibition of human NCI-H661 cell growth in a cell viability assay.

[23] = test system: NCI-H28; assay: cells; type: functional, cell-based, Homo sapiens; conditions: Homo sapiens, NCI-H28;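 further: growth inhibition of human NCI-H28 cells, read out as cell viability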
Description: SANGER: Inhibition of human NCI-H28 cell growth in a cell viability assay.

[24] = test system: NCI-H1573; assay: cells; type: functional, cell-based, Homo sapiens; conditions: Homo sapiens, NCI-H1573;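 further: growth inhibition of NCI-H1573 cells, read out with a cell viability assay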
Description: SANGER: Inhibition of human NCI-H1573 cell growth in a cell viability assay.

[25] = test system: ACHN; assay: cells; type: functional, cell-based, Homo sapiens; conditions: Homo sapiens, ACHN;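 further: cell viability read-out used to gauge how strongly growth of human ACHN cells is suppressed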
Description: SANGER: Inhibition of human ACHN cell growth in a cell viability assay.

[26] = test system: T84; assay: cells; type: functional, cell-based, Homo sapiens; conditions: Homo sapiens, T84;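 further: growth inhibition measured with a cell viability readout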
Description: SANGER: Inhibition of human T84 cell growth in a cell viability assay.

[27] = test system: MONO-MAC-6; assay: cells; type: functional, cell-based, Homo sapiens; conditions: Homo sapiens, MONO-MAC-6;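 further: cell viability assay measuring growth inhibition of human MONO-MAC-6 cells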
Description: SANGER: Inhibition of human MONO-MAC-6 cell growth in a cell viability assay.

[28] = test system: CAL-39; assay: cells; type: functional, cell-based, Homo sapiens; conditions: Homo sapiens, CAL-39;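 further: cell viability assay measuring growth inhibition of CAL-39 cells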
Description: SANGER: Inhibition of human CAL-39 cell growth in a cell viability assay.

[29] = test system: NCI-H2347; assay: cells; type: functional, cell-based, Homo sapiens; conditions: Homo sapiens, NCI-H2347;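 further: growth inhibition of the cell line, read out with a cell viability assay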
Description: SANGER: Inhibition of human NCI-H2347 cell growth in a cell viability assay.

[30] = test system: LCLC-97TM1; assay: cells; type: functional, cell-based, Homo sapiens; conditions: Homo sapiens, LCLC-97TM1;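 further: cell viability assay measuring growth inhibition of human LCLC-97TM1 cells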
Description: SANGER: Inhibition of human LCLC-97TM1 cell growth in a cell viability assay.

[31] = test system: YT; assay: cells; type: functional, cell-based, Homo sapiens; conditions: Homo sapiens, YT
Description: SANGER: Inhibition of human YT cell growth in a cell viability assay.

[32] = test system: NCI-H2009; assay: cells; type: functional, cell-based, Homo sapiens; conditions: Homo sapiens, NCI-H2009;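 further: cell viability assay measuring inhibition of NCI-H2009 cell growth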
Description: SANGER: Inhibition of human NCI-H2009 cell growth in a cell viability assay.

[33] = test system: IMR-5; assay: cells; type: functional, cell-based, Homo sapiens; conditions: Homo sapiens, IMR-5;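 further: growth inhibition of human IMR-5 cells, read out with a cell viability assay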
Description: SANGER: Inhibition of human IMR-5 cell growth in a cell viability assay.

[34] = test system: RT-112; assay: cells; type: functional, cell-based, Homo sapiens; conditions: Homo sapiens, RT-112
Description: SANGER: Inhibition of human RT-112 cell growth in a cell viability assay.

[35] = test system: HCC1937; assay: cells; type: functional, cell-based, Homo sapiens; conditions: Homo sapiens, HCC1937;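 further: growth inhibition measured with a cell viability read-out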
Description: SANGER: Inhibition of human HCC1937 cell growth in a cell viability assay.

[36] = test system: 639-V; assay: cells; type: functional, cell-based, Homo sapiens; conditions: Homo sapiens, 639-V;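 further: growth inhibition of 639-V cells, read out with a cell viability assay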
Description: SANGER: Inhibition of human 639-V cell growth in a cell viability assay.

[37] = test system: CP50-MEL-B; assay: cells; type: functional, cell-based, Homo sapiens; conditions: Homo sapiens, CP50-MEL-B;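 further: growth inhibition of the human cell line, measured with a cell viability read-out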
Description: SANGER: Inhibition of human CP50-MEL-B cell growth in a cell viability assay.

[38] = test system: MCF7; assay: cells; type: functional, cell-based, Homo sapiens; conditions: Homo sapiens, MCF7;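 further: growth inhibition of human MCF7 cells, read out with a cell viability assay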
Description: SANGER: Inhibition of human MCF7 cell growth in a cell viability assay.

[39] = test system: CA46; assay: cells; type: functional, cell-based, Homo sapiens; conditions: Homo sapiens, CA46;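 further: growth inhibition of human CA46 cells, read out by a cell viability assay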
Description: SANGER: Inhibition of human CA46 cell growth in a cell viability assay.

[40] = test system: NCI-H1694; assay: cells; type: functional, cell-based, Homo sapiens; conditions: Homo sapiens, NCI-H1694;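 further: cell viability assay measuring inhibition of growth in human NCI-H1694 cells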
Description: SANGER: Inhibition of human NCI-H1694 cell growth in a cell viability assay.

[41] = test system: OAW-42; assay: cells; type: functional, cell-based, Homo sapiens; conditions: Homo sapiens, OAW-42;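 further: growth inhibition of OAW-42 cells, read out with a cell viability assay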
Description: SANGER: Inhibition of human OAW-42 cell growth in a cell viability assay.

[42] = test system: G-402; assay: cells; type: functional, cell-based, Homo sapiens; conditions: Homo sapiens, G-402
Description: SANGER: Inhibition of human G-402 cell growth in a cell viability assay.

[43] = test system: NCCIT; assay: SANGER: Inhibition of human NCCIT cell growth in a cell viability assay.; type: functional, cell-based; conditions: Homo sapiens, NCCIT
[44] = test system: Huh-7; assay: cells; type: functional, cell-based, Homo sapiens; conditions: Homo sapiens, Huh-7;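 further: HuH-7 cell growth inhibition, read out with a cell viability assay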
Description: SANGER: Inhibition of human HuH-7 cell growth in a cell viability assay.

Which results are given for `COc1cccc2c1C(=O)c1c(O)c3c(c(O)c1C2=O)C[C@@](O)(C(=O)CO)C[C@@H]3O[C@H]1C[C@H](N)[C@H](O)[C@H](C)O1` [DOXORUBICIN]?
IC50 [1]: 75.8 nM; IC50 [2]: 215 nM; IC50 [3]: 427 nM; IC50 [4]: 22.9 nM; IC50 [5]: 195 nM; IC50 [6]: 216 nM; IC50 [7]: 25.7 nM; IC50 [8]: > 1020 nM; IC50 [9]: 44.7 nM; IC50 [10]: > 1020 nM; IC50 [11]: 118 nM; IC50 [12]: > 1020 nM; IC50 [13]: > 1020 nM; IC50 [14]: 12.9 nM; IC50 [15]: 155 nM; IC50 [16]: 154 nM; IC50 [17]: 293 nM; IC50 [18]: 117 nM; IC50 [19]: > 1020 nM; IC50 [20]: > 1020 nM; IC50 [21]: > 1020 nM; IC50 [22]: 49 nM; IC50 [23]: > 1020 nM; IC50 [24]: > 1020 nM; IC50 [25]: 49.3 nM; IC50 [26]: 57.1 nM; IC50 [27]: 154 nM; IC50 [28]: 98.2 nM; IC50 [29]: 158 nM; IC50 [30]: 11.8 nM; IC50 [31]: > 1.02 µM; IC50 [32]: 51.8 nM; IC50 [33]: 34.7 nM; IC50 [34]: 32.9 nM; IC50 [35]: 116 nM; IC50 [36]: 15.9 nM; IC50 [37]: > 1020 nM; IC50 [38]: 11.7 nM; IC50 [39]: 137 nM; IC50 [40]: 200 nM; IC50 [41]: 154 nM; IC50 [42]: 99.1 nM; IC50 [43]: 20.1 nM; IC50 [44]: 258 nM

Which results are given for `Nc1ccn([C@@H]2O[C@H](CO)[C@@H](O)C2(F)F)c(=O)n1` [GEMCITABINE]?
IC50 [1]: < 4 nM; IC50 [2]: 82.4 nM; IC50 [3]: > 1020 nM; IC50 [4]: 7.63 nM; IC50 [5]: 120 nM; IC50 [6]: 34.2 nM; IC50 [7]: < 4 nM; IC50 [8]: 539 nM; IC50 [9]: 6.32 nM; IC50 [10]: > 1020 nM; IC50 [11]: 27.6 nM; IC50 [12]: > 1020 nM; IC50 [13]: > 1020 nM; IC50 [14]: 11.2 nM; IC50 [15]: 50.3 nM; IC50 [16]: 289 nM; IC50 [17]: 461 nM; IC50 [18]: 306 nM; IC50 [19]: > 1020 nM; IC50 [20]: > 1020 nM; IC50 [21]: > 1020 nM; IC50 [22]: 104 nM; IC50 [23]: > 1020 nM; IC50 [24]: > 1020 nM; IC50 [25]: < 4 nM; IC50 [26]: 16 nM; IC50 [27]: 24.8 nM; IC50 [28]: > 1020 nM; IC50 [29]: 792 nM; IC50 [30]: < 4 nM; IC50 [31]: > 1.02 µM; IC50 [32]: < 4 nM; IC50 [33]: 83 nM; IC50 [34]: < 4 nM; IC50 [35]: > 1020 nM; IC50 [36]: 193 nM; IC50 [37]: > 1020 nM; IC50 [38]: < 4 nM; IC50 [39]: 293 nM; IC50 [40]: 61.3 nM; IC50 [41]: 92.1 nM; IC50 [42]: < 4 nM; IC50 [43]: 176 nM; IC50 [44]: 569 nM

`O=C(O)c1ccc(-c2c[nH]c3ncc(-c4ccccc4)cc23)cc1C1CCCC1` [GSK-650394] was tested. Which IC50 [1] did it give?
The IC50 was > 16000 nM.

What about the IC50 [2] of the same compound?
The IC50 was > 16000 nM.

What about the IC50 [3] of the same compound?
The IC50 was > 16000 nM.

What about the IC50 [4] of the same compound?
The IC50 was 2190 nM.

What about the IC50 [5] of the same compound?
The IC50 was > 16000 nM.

What about the IC50 [6] of the same compound?
The IC50 was > 16000 nM.

What about the IC50 [7] of the same compound?
Its IC50 is 4880 nM.

And the IC50 [8]?
Its IC50 is > 16000 nM.

And the IC50 [9]?
The IC50 was 5600 nM.

And the IC50 [10]?
Its IC50 is > 16000 nM.

What about the IC50 [11] of the same compound?
Its IC50 is > 16000 nM.

What about the IC50 [12] of the same compound?
The IC50 was > 16000 nM.

And the IC50 [13]?
The IC50 was > 16000 nM.

What about the IC50 [14] of the same compound?
The IC50 was > 16000 nM.

What about the IC50 [15] of the same compound?
Its IC50 is > 16000 nM.

What about the IC50 [16] of the same compound?
The IC50 was > 16000 nM.

And the IC50 [17]?
Its IC50 is > 16000 nM.

And the IC50 [18]?
Its IC50 is > 16000 nM.

What about the IC50 [19] of the same compound?
The IC50 was > 16000 nM.

What about the IC50 [20] of the same compound?
Its IC50 is > 16000 nM.

What about the IC50 [21] of the same compound?
Its IC50 is > 16000 nM.

What about the IC50 [22] of the same compound?
Its IC50 is > 16000 nM.

What about the IC50 [23] of the same compound?
Its IC50 is > 16000 nM.

What about the IC50 [24] of the same compound?
The IC50 was > 16000 nM.

What about the IC50 [25] of the same compound?
Its IC50 is 10800 nM.

And the IC50 [26]?
The IC50 was 2600 nM.

What about the IC50 [27] of the same compound?
Its IC50 is 1180 nM.

What about the IC50 [28] of the same compound?
Its IC50 is 9310 nM.

And the IC50 [29]?
The IC50 was > 16000 nM.

And the IC50 [30]?
Its IC50 is 1370 nM.

What about the IC50 [31] of the same compound?
Its IC50 is 9.9 µM.

What about the IC50 [32] of the same compound?
The IC50 was 3760 nM.

What about the IC50 [33] of the same compound?
The IC50 was 9190 nM.

What about the IC50 [34] of the same compound?
Its IC50 is 1030 nM.

What about the IC50 [35] of the same compound?
The IC50 was > 16000 nM.

And the IC50 [36]?
Its IC50 is 5170 nM.

And the IC50 [37]?
Its IC50 is > 16000 nM.

What about the IC50 [38] of the same compound?
Its IC50 is 1820 nM.

And the IC50 [39]?
Its IC50 is > 16000 nM.

And the IC50 [40]?
Its IC50 is > 16000 nM.

What about the IC50 [41] of the same compound?
Its IC50 is > 16000 nM.

What about the IC50 [42] of the same compound?
The IC50 was 9130 nM.

And the IC50 [43]?
Its IC50 is > 16000 nM.

And the IC50 [44]?
Its IC50 is > 16000 nM.
